Patent US6727066B2, “Genes expressed in treated human C3A liver cell cultures” (Incyte Corporation, priority 2000, dated 2004)

Columns and labels:
[1] = cited from earlier work
[2] = system: human C3A liver cell cultures; assay: Microarray differential expression of cDNAs in treated human C3A liver cell cultures; format: cell-based; conditions: change vs untreated C3A cells
Excerpt: Incyte clones represent template sequences derived from the LIFESEQ GOLD assembled human sequence database (Incyte Genomics). In cases where more than one clone was available for a particular template, the 5′-most clone in the template was used on the microarray. The GENEALBUM GEM series 1-6 microarrays (Incyte Genomics) contain 52,616 array elements which represent 17,472 annotated clusters and 35,144 unannotated clusters. The HUMAN GENOME GEM series 1-3 microarrays (Incyte Genomics) contain 28,626 array elements which represent 10,068 annotated clusters and 18,558 unannotated clusters. For the UNIGEM series microarrays (Incyte Genomics), Incyte clones were mapped to non-redundant Unigene clusters (Unigene database (build 46), NCBI; Shuler (1997) J Mol Med 75:694-698), and the 5′ clone with the strongest BLAST alignment (at least 90% identity and 100 bp overlap) was chosen, verified, and used in the construction of the microarray. The UNIGEM V microarray (Incyte Genomics) contains 7075 array elements which represent 4610 annotated genes and 2,184 unannotated clusters.
To construct microarrays, cDNAs were amplified from bacterial cells using primers complementary to vector sequences flanking the cDNA insert. […] Amplified cDNAs were then purified using […]-400 columns (APB). Purified cDNAs were immobilized on polymer-coated glass slides. Glass microscope slides (Corning, Corning N.Y.) were cleaned by ultrasound in 0.1% SDS and acetone, with extensive distilled water washes between and after treatments. Glass slides were etched in 4% hydrofluoric acid (VWR Scientific Products, West Chester Pa.), washed thoroughly in distilled water, and coated with 0.05% aminopropyl silane (Sigma Aldrich) in 95% ethanol. Coated slides were cured in a 110° C. oven. cDNAs were applied to the coated glass substrate using a procedure described in U.S. Pat. No. 5,807,522. One microliter of the cDNA at an average concentration of 100 ng/ul was loaded into the open capillary printing element by a high-speed robotic apparatus which then deposited about 5 nl of cDNA per slide.
Microarrays were UV-crosslinked using a […] UV-crosslinker (Stratagene), and then washed at room temperature once in 0.2% SDS and three times in distilled water. Non-specific binding sites were blocked by incubation of microarrays in 0.2% casein in phosphate buffered saline (Tropix, Bedford Mass.) for 30 minutes at 60° C. followed by washes in 0.2% SDS and distilled water as before.
Early confluent C3A cells (ATTC, Manassas Va.) were treated with captopril (0.5, 2, 48, and 60 μg/ml) for 1, 3, and 6 hours. Early confluent C3A cells were treated with enalapril (0.5, 2, 48, and 60 μg/ml) for 1, 3, and 6 hours. Early confluent C3A cells were treated with LY294002 (0.5, 2, 15, and 25 μg/ml) for 1, 3, and 6 hours. Early confluent C3A cells were starved of insulin for 3 days prior to treatment, then treated with LY294002 (10 μM) for 2, 24, 36, and 72 hours in the presence of insulin. Early confluent C3A cells were treated with DES (1, 10, and 100 μM) for 1, 3, and 6 hours. Early confluent C3A cells were treated with dexamethasone (1 and 20 μM) for 0, 2, 6, and 24 hours. Early confluent C3A cells were treated with MCA (0.5 and 10 μM) for 2, 6, and 24 hours. In all cases mRNA from untreated early confluent cells were prepared in parallel as described below.
Cells were harvested and lysed in 1 ml of TRIZOL reagent (5×10^6 cells/ml; Life Technologies). The lysates were vortexed thoroughly and incubated at room temperature for 2-3 minutes and extracted with 0.5 ml chloroform. The extract was mixed, incubated at room temperature for 5 minutes, and centrifuged at 15,000 rpm for 15 minutes at 4° C. The aqueous layer was collected and an equal volume of isopropanol was added.

C[C@H](N[C@@H](CCc1ccccc1)C(=O)O)C(=O)N1CCC[C@H]1C(=O)O [Enalaprilat, enalaprilat]
plasma half-life ([1]; in vivo): about 11 hours

CCOC(=O)[C@H](CCc1ccccc1)N[C@@H](C)C(=O)N1CCC[C@H]1C(=O)O [Enalapril]
time of peak plasma concentration ([1]; enalapril given orally): within an hour
oral bioavailability ([1]; given orally, not reduced by food): about 60%
half-life ([1]; in vivo): 1.3 h
expression level of cDNA clone 63038 [2]: −2.97
expression level of cDNA clone 118501 [2]: 6.06
expression level of cDNA clone 160822 [2]: 2.39
expression level of cDNA clone 279898 [2]: 4.08
expression level of cDNA clone 630625 [2]: 2.51
expression level of cDNA clone 1308112 [2]: 2.14
expression level of cDNA clone 1368834 [2]: 2.43
expression level of cDNA clone 1379063 [2]: −2.44
expression level of cDNA clone 1448718 [2]: −3.91
expression level of cDNA clone 1696224 [2]: 3.97
expression level of cDNA clone 1711151 [2]: 2.48
expression level of cDNA clone 1861456 [2]: −2.51
expression level of cDNA clone 1930235 [2]: 3
expression level of cDNA clone 1975268 [2]: −2.75
expression level of cDNA clone 1998269 [2]: 2.27
expression level of cDNA clone 2055569 [2]: −3.1
expression level of cDNA clone 2123516 [2]: 3.71
expression level of cDNA clone 2513883 [2]: 3.82
expression level of cDNA clone 2757583 [2]: 4.13
expression level of cDNA clone 2884613 [2]: 2.51
expression level of cDNA clone 2921991 [2]: −4.67
expression level of cDNA clone 2933775 [2]: 4.73
expression level of cDNA clone 2955163 [2]: 2.33
expression level of cDNA clone 4556538 [2]: 3.02

C[C@H](CS)C(=O)N1CCC[C@H]1C(=O)O [Captopril]
expression level of cDNA clone 63038 [2]: −3.16
expression level of cDNA clone 118501 [2]: 4.36
expression level of cDNA clone 160822 [2]: 2.5
expression level of cDNA clone 211389 [2]: −2.52
expression level of cDNA clone 630625 [2]: 2.81
expression level of cDNA clone 1315663 [2]: −2.84
expression level of cDNA clone 1368834 [2]: 2.47
expression level of cDNA clone 1379063 [2]: −4
expression level of cDNA clone 1381654 [2]: 1.57
expression level of cDNA clone 1448718 [2]: −3.93
expression level of cDNA clone 1519431 [2]: 2.36
expression level of cDNA clone 1559756 [2]: 1.56
expression level of cDNA clone 1619292 [2]: −4.3
expression level of cDNA clone 1696224 [2]: 3.28
expression level of cDNA clone 1711151 [2]: 3.05
expression level of cDNA clone 1846209 [2]: 1.81
expression level of cDNA clone 1930235 [2]: 3.25
expression level of cDNA clone 1998269 [2]: 2.99
expression level of cDNA clone 2055569 [2]: −3.33
expression level of cDNA clone 2055867 [2]: −2.61
expression level of cDNA clone 2123516 [2]: 3.89
expression level of cDNA clone 2360580 [2]: −2.71
expression level of cDNA clone 2446289 [2]: −2.15
expression level of cDNA clone 2757583 [2]: 4.03
expression level of cDNA clone 2769888 [2]: −2.01
expression level of cDNA clone 2820337 [2]: 2.29
expression level of cDNA clone 2884613 [2]: 2.46
expression level of cDNA clone 2912637 [2]: −2.38
expression level of cDNA clone 2921991 [2]: −5.21
expression level of cDNA clone 2933775 [2]: 5.14
expression level of cDNA clone 3225977 [2]: 2.89
expression level of cDNA clone 3240708 [2]: 2.02
expression level of cDNA clone 3381870 [2]: 2.62
expression level of cDNA clone 3679667 [2]: −2.09
expression level of cDNA clone 3815422 [2]: −3.78
expression level of cDNA clone 4107126 [2]: 2.88

CC(C)OC(=O)C(C)(C)Oc1ccc(C(=O)c2ccc(Cl)cc2)cc1 [Fenofibrate, fenofibrate]
expression level of cDNA clone 63038 [2]: −2.9
expression level of cDNA clone 280932 [2]: −2.67
expression level of cDNA clone 437481 [2]: 2.44
expression level of cDNA clone 443991 [2]: 2.47
expression level of cDNA clone 450856 [2]: 2.49
expression level of cDNA clone 452321 [2]: 3
expression level of cDNA clone 480791 [2]: −2.27
expression level of cDNA clone 630625 [2]: 3.95
expression level of cDNA clone 970905 [2]: −4.06
expression level of cDNA clone 1315663 [2]: −4.02
expression level of cDNA clone 1619292 [2]: −5
expression level of cDNA clone 1705208 [2]: 2.83
expression level of cDNA clone 1846463 [2]: 6.58
expression level of cDNA clone 1969563 [2]: 6.8
expression level of cDNA clone 1975268 [2]: −2.42
expression level of cDNA clone 2042056 [2]: 5.46
expression level of cDNA clone 2055569 [2]: −3.12
expression level of cDNA clone 2055867 [2]: −3.4
expression level of cDNA clone 2123516 [2]: 4.6
expression level of cDNA clone 2234853 [2]: −2.7
expression level of cDNA clone 2360580 [2]: −4.5
expression level of cDNA clone 2382195 [2]: −2.87
expression level of cDNA clone 2399162 [2]: −2.5
expression level of cDNA clone 2448149 [2]: −2.35
expression level of cDNA clone 2513883 [2]: 4.47
expression level of cDNA clone 2607921 [2]: −3.2
expression level of cDNA clone 2757583 [2]: 4.75
expression level of cDNA clone 2769888 [2]: −3.17
expression level of cDNA clone 2929484 [2]: −2.89
expression level of cDNA clone 2957205 [2]: 2.44
expression level of cDNA clone 3222802 [2]: 2.55
expression level of cDNA clone 3272165 [2]: −2.57
expression level of cDNA clone 4287327 [2]: −3.14
expression level of cDNA clone 4556538 [2]: 2.53
